# According to publication PMC9853328, “Potent Platinum(IV) Prodrugs That Incorporate a Biotin Moiety to Selectively Target Cancer Cells” (Pharmaceutics, 2022):
# Values joined by “and” are separate entries in the source; they are usually repeats but may differ in a detail not shown here. Equal entries are not always repeated.
# Columns and labels:
# [1] = test system: BE2-C neuroblastoma cells; assay: MTT in vitro cytotoxicity assay, BE2-C; type: cell-based; details: 72 h drug exposure, n = 3, read-out: GI50 ± SEM, BE2-C
# Protocol: (§1) The in vitro cytotoxicity assays were undertaken at Calvary Mater Hospital, Waratah, NSW, Australia, following a method previously published in the literature. A stock solution for each compound was prepared in DMSO (30 mM) and stored at −20 °C. The cell lines used in the study include HT29 colon, U87 glioblastoma, MCF-7 breast, A2780 ovarian, H460 lung, A431 skin, Du145 prostate, BE2-C neuroblastoma, SJ-G2 glioblastoma, MIA pancreas, and cisplatin-resistant ADDP ovarian (subclone of A2780) cancer cells, as well as the non-cancerous-derived MCF10A breast cell line. The cancer cell lines were cultured in a humidified atmosphere 5% CO2 at 37 °C and maintained in Dulbecco’s modified Eagle’s medium (Trace Biosciences, Sydney, Australia), supplemented with 10% foetal bovine serum, sodium bicarbonate (10 mM), penicillin (100 IU/mL), streptomycin (100 µg/mL), and glutamine (4 mM). The non-cancerous MCF10A cell line was maintained in DMEM:F12 (1:1) cell culture media, with 5% heat inactivated horse serum, supplemented with penicillin (50 IU/mL), streptomycin (50 µg/mL), glutamine (2 mM), HEPES (20 mM), epidermal growth factor (20 ng/mL), hydrocortisone (500 ng/mL), cholera toxin (100 ng/mL), and insulin (10 µg/mL). Cells were plated in duplicate in medium (100 µL) at a density of 2500–4000 cells per well in 96-well plates. On day 0, (24 h after plating) when the cells were in logarithmic growth, medium (100 μL) with or without the test agent was added to each well. The growth inhibitory effects were evaluated after 72 h drug exposure, using the MTT (3-(4,5-dimethylthiazol-2-yl)-2,5-diphenyltetrazolium bromide) assay, with the absorbance read at 540 nm. An eight-point dose–response curve was produced, which was used to determine the concentration at which growth was inhibited by 50% (GI50). This calculation was based on the difference between the optical density values on day 0 and those at the end of drug exposure. […] Experiments were conducted on three separate occasions and GI50 values were reported as the mean and standard error of the mean.
# H460 lung cancer cells = assay: MTT in vitro cytotoxicity assay, H460; type: cell-based; details: 72 h drug exposure, n = 3, read-out: GI50 ± SEM, H460
# Protocol: as §1
# [2] = test system: MCF-7 breast cancer cells; assay: MTT in vitro cytotoxicity assay, MCF-7; type: cell-based
# [3] = test system: MCF-7 (breast cancer) cells; assay: Cellular platinum uptake by ICP-MS, MCF-7; type: cell-based; details: at both 1.0 and 0.1 µM, 4 h
# Protocol: Cellular uptake studies were carried out in MCF-7 (breast cancer) and MCF10A (healthy breast) cell lines. Reported in Table S2 are the numbers of cells per well that were seeded onto 12-well plates for each replicate and cell line. After incubating overnight at 37 °C, the cell culture medium was replaced with fresh media containing the test compounds at concentrations of 1.0 and 0.1 µM. After incubating for 4 h, the medium was removed, the cells were washed with PBS twice, and then incubated with trypsin solution until the cells dissociated from the plate. The harvested cells were then placed into an Eppendorf tube and PBS was added to a volume of 1 mL. Cell numbers were determined using trypan blue staining. Cell pellets were obtained after centrifugation and the cells were dispersed in 50 µL of MilliQ™ water and stored immediately at −20 °C until platinum analysis was conducted. These experiments were repeated in triplicate on three separate occasions.
# Sixty-nine percent HNO3 (50 µL) was added to each sample and digested at 80 °C for 1.5 h, before being taken up to 1 mL with H2O. The platinum analysis was conducted using a PerkinElmer (Melbourne, Australia) NexION™ 300X inductively coupled plasma mass spectrometer (ICP-MS). A four-point calibration curve was produced by serial dilution of a certified platinum reference standard. The calibration was linear over the working range (R^2 > 0.9999) and the most abundant platinum isotope (m/z = 195) was monitored. The average values for three independent experiments were reported with standard deviations.
# [4] = test system: cisplatin-resistant ADDP ovarian (subclone of A2780) cancer cells; assay: MTT in vitro cytotoxicity assay, ADDP; type: cell-based; details: 72 h drug exposure, n = 3, read-out: GI50 ± SEM, ADDP
# Protocol: as §1
# [5] = Lipophilicity by RP-HPLC (logkw); type: physicochemical; details: capacity factor in 100% water
# Protocol: HPLC experiments were carried out using an Agilent Technologies (Melbourne, Australia) 1260 Infinity instrument, equipped with a Phenomenex (Sydney, Australia) Onyx^TM Monolithic C18 reverse phase column (100 × 4.6 mm, 130 Å). The mobile phase was made up of 0.06% TFA in water (solvent A) and 0.06% TFA in an acetonitrile:water (9:1) mixture (solvent B). Samples were eluted over a gradient of 0–100% (% B) for 15 min, at a flow rate of 1 mL/min, with a sample injection volume of 10 µL. Eluting peaks were detected using a PDA at 254 nm.
# For lipophilicity experiments, RP-HPLC was utilised to determine the logkw of each compound, similarly to what has been previously published for similar complexes. Samples were eluted at various isocratic percentages, ranging from 18–30% solvent B. To determine the dead volume of the column, potassium iodide was used as an external dead volume marker. The retention time of each sample in each isocratic run ( tr ) and the dead volume time ( t0 ) were both substituted in Equation (1) to calculate the capacity factor ( k ). (1) k=tr−t0/t0
# Following this, logk was plotted against the percentage of ACN. For each complex, a minimum of four concentrations of ACN were used. This produced a linear graph with the equation in the form:(2) logk=Sφ+logkw where S is the slope, φ is the percentage of ACN, and logkw is the y-intercept, which represents the capacity factor of the compound in 100% water.
# It is important to explore the lipophilicity of a drug, as it is widely believed that increased lipophilicity results in greater cellular accumulation. To understand the lipophilicity of 1–4, RP-HPLC was utilised to determine the logkw of each complex. To calculate this, each complex was eluted at different isocratic percentages, whereby the retention time was used in Equation (1) to calculate the capacity factor (k). The percentage of the organic solvent was then plotted against log k for each isocratic percentage, producing a linear equation that allowed for logkw to be deduced using Equation (2) (Figure S38). The logkw value represents the capacity factor of the compound in 100% water and can be used to compare a series of compounds. Since 1–4 comprise the same axially bound ligand, biotin, the lipophilicity was influenced by the groups on the PL. The logkw of each complex is presented in Table 1, with their corresponding PL. The increasing lipophilicity of the complexes followed the order: 1 < 4 < 2 < 3.
# [6] = test system: A2780 ovarian cancer cells; assay: MTT in vitro cytotoxicity assay, A2780; type: cell-based; details: 72 h drug exposure, n = 3, read-out: GI50 ± SEM, A2780
# Protocol: as §1
# [7] = test system: Du145 prostate cancer cells; assay: MTT in vitro cytotoxicity assay, Du145; type: cell-based
# Protocol: as §1
# U87 glioblastoma cells = assay: MTT in vitro cytotoxicity assay, U87; type: cell-based; details: 72 h drug exposure, n = 3, read-out: GI50 ± SEM, U87
# Protocol: as §1
# [8] = test system: ADDP (subclone of A2780) versus A2780 ovarian cancer cell lines; assay: Resistance factor, GI50 in ADDP/GI50 in A2780; type: cell-based
# [9] = test system: MIA pancreas cancer cells; assay: MTT in vitro cytotoxicity assay, MIA; type: cell-based; details: 72 h drug exposure, n = 3, read-out: GI50 ± SEM, MIA
# Protocol: as §1
# A431 skin cancer cells = assay: MTT in vitro cytotoxicity assay, A431; type: cell-based; details: 72 h drug exposure, n = 3, read-out: GI50 ± SEM, A431
# Protocol: as §1
# SJ-G2 glioblastoma cells = assay: MTT in vitro cytotoxicity assay, SJ-G2; type: cell-based; details: 72 h drug exposure, n = 3, read-out: GI50 ± SEM, SJ-G2
# Protocol: as §1
# [10] = test system: panel of cancer cell lines; assay: MTT cytotoxicity averaged across the panel of cancer cell lines; type: cell-based
# [11] = test system: non-cancerous MCF10A breast cell line; assay: MTT in vitro cytotoxicity assay, MCF10A; type: cell-based; details: 72 h drug exposure, n = 3, read-out: GI50 ± SEM, MCF10A
# Protocol: as §1
# HT29 colon cancer cells = assay: MTT in vitro cytotoxicity assay, HT29; type: cell-based
# Protocol: as §1
smiles,measurement,setting,value
"Cc1cc2ccc[n+]3c2c2c1ccc[n+]2[Pt-2]31([OH])([O]C(=O)CCCC[C@@H]2SC[C@@H]3NC(=O)N[C@@H]32)[NH2+][C@H]2CCCC[C@@H]2[NH2+]1.O=[N+]([O-])[O-].O=[N+]([O-])[O-] [Complex 4, [Pt(5-methyl-1,10-phenanthroline)(1S,2S-diaminocyclohexane)(biotin)(hydroxido)](NO3)2]",GI50,[1],100 ± 20 nM
same,GI50,H460 lung cancer cells,32 ± 10 nM
same,GI50,"[2]; MTT, 72 h drug exposure, n = 3, read-out: GI50 ± SEM, MCF-7",33 ± 4 nM
same,fold more active than its platinum(II) precursor in MCF-7,[2]; ratio of GI50 values,6 fold
same,fold lower uptake in MCF-7 than its platinum(II) precursor,[3],~ 2 fold
same,GI50,[4],29 ± 5 nM
same,logkw,[5],0.74
same,GI50,[6],34 ± 5 nM
same,GI50,"[7]; MTT, 72 h drug exposure, n = 3, read-out: GI50 ± SEM, Du145",9 ± 4 nM
same,"number-fold potency against cisplatin, Du145 prostate","[7]; ratio of GI50 values, 72 h",133 fold
same,GI50,U87 glioblastoma cells,110 ± 30 nM
same,Resistance factor (RF),[8],0.853 and 0.85
same,GI50,[9],20 ± 4 nM
same,GI50,A431 skin cancer cells,110 ± 20 nM
same,GI50,SJ-G2 glioblastoma cells,100 ± 30 nM
same,enhanced activity compared to platinum(II) precursor across the cancer cell lines,[10]; across all cancer cell lines,~ 2.3 fold
same,GI50,[10]; calculated from the panel of cancer cell lines tested (Table S4),55 nM
same,GI50,[11],31 ± 9 nM
same,GI50,"HT29 colon cancer cells; MTT, 72 h drug exposure, n = 3, read-out: GI50 ± SEM, HT29",28 ± 9 nM
same,"number-fold potency against cisplatin, HT29 colon","HT29 colon cancer cells; ratio of GI50 values, 72 h",404 fold
